Data reported in patent US6376497B1, “Antifungal azole derivatives having a fluorinated vinyl group and process for preparing same” (Korea Research Institute of Chemical Technology, priority 1999, dated 2002).
≈ marks a conversion by molar mass, not a printed value.

How the values were obtained:
Experiment in all cases: In vitro antifungal activity, microbroth dilution MIC
Format in all cases: cell-based
[1] = test system: Aspergillus furnigatus B. 19119; settings: for Minimal inhibitory concentration(MIC), A furnigatus B. 19119: RPMI-1640, 35° C., no growth observed
Method in brief: (§1)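 Broth microdilution adapted from NCCLS M27, in RPMI-1640 with 0.165 M MOPS, pH 7.0. Yeast or mould inoculum at 2×10^3 CFU/ml was mixed 1:1 with DMSO-derived compound solutions (200 to 0.10 μg/ml before mixing) and incubated at 35 °C for 4 to 48 h. MIC was the concentration showing no growth.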

[2] = test system: Aspergillus niger A. 16404; settings: for Minimal inhibitory concentration(MIC), A. niger A. 16404: RPMI-1640, 35° C., no growth observed
Method in brief: as §1

[3] = test system: Candida albicans A. 10231; settings: 4 to 48 hours; for Minimal inhibitory concentration(MIC), C. albicans A. 10231: RPMI-1640, 35° C., no growth observed
Method in brief: as §1

Candida albicans C1-2 = settings: 4 to 48 hours; for Minimal inhibitory concentration(MIC), C. albicans C1-2: RPMI-1640, 35° C., no growth observed
Method in brief: as §1

[4] = test system: Candida albicans IFO. 1385; settings: 4 to 48 hours; for Minimal inhibitory concentration(MIC), C. albicans IFO. 1385: RPMI-1640, 35° C., no growth observed
Method in brief: as §1

Candida krusei K. 11655 = settings: 4 to 48 hours; for Minimal inhibitory concentration(MIC), C. krusei K. 11655: RPMI-1640, 35° C., no growth observed
Method in brief: as §1

[5] = test system: Candida parapsitosis A. 7330; settings: 4 to 48 hours; for Minimal inhibitory concentration(MIC), C. parapsitosis A. 7330: RPMI-1640, 35° C., no growth observed
Method in brief: as §1

[6] = test system: Candida pseudotropicalis K. 11658; settings: 4 to 48 hours; for Minimal inhibitory concentration(MIC), C. pseudotropicalis K. 11658: RPMI-1640, 35° C., no growth observed
Method in brief: as §1

[7] = test system: Candida tropicalis A. 13803; settings: 4 to 48 hours; for Minimal inhibitory concentration(MIC), C. tropicalis A. 13803: RPMI-1640, 35° C., no growth observed
Method in brief: as §1

[8] = test system: Cryptococcus neoformans A. 34144; settings: for Minimal inhibitory concentration(MIC), Cry. neoformans A. 34144: RPMI-1640, 35° C., no growth observed
Method in brief: as §1

[9] = test system: Cryptococcus neoformans B. 42419; settings: 4 to 48 hours; for Minimal inhibitory concentration(MIC), Cry. neoformans B. 42419: RPMI-1640, 35° C., no growth observed
Method in brief: as §1

[10] = test system: Cryptococcus neoformans IFM. 40092; settings: for Minimal inhibitory concentration(MIC), Cry. neoformans IFM. 40092: RPMI-1640, 35° C., no growth observed
Method in brief: as §1

[11] = test system: Torulopsis glabrata B. 16205; settings: 4 to 48 hours; for Minimal inhibitory concentration(MIC), T. glabrata B. 16205: RPMI-1640, 35° C., no growth observed
Method in brief: as §1

[12] = test system: Trichophyton mentagrophytes A. 9129; settings: for Minimal inhibitory concentration(MIC), T. mentagrophytes A. 9129: RPMI-1640, 35° C., no growth observed
Method in brief: as §1

[13] = test system: Trichophyton mentagrophytes B. 32663; settings: for Minimal inhibitory concentration(MIC), T. mentagrophytes B. 32663: RPMI-1640, 35° C., no growth observed
Method in brief: as §1

Compound | Minimal inhibitory concentration(MIC), C. albicans A. 10231 [3] [µg/mL] | Minimal inhibitory concentration(MIC), C. albicans C1-2 (Candida albicans C1-2) [µg/mL] | Minimal inhibitory concentration(MIC), C. albicans IFO. 1385 [4] [µg/mL] | Minimal inhibitory concentration(MIC), C. krusei K. 11655 (Candida krusei K. 11655) [µg/mL] | Minimal inhibitory concentration(MIC), C. parapsitosis A. 7330 [5] [µg/mL] | Minimal inhibitory concentration(MIC), C. pseudotropicalis K. 11658 [6] [µg/mL] | Minimal inhibitory concentration(MIC), C. tropicalis A. 13803 [7] [µg/mL] | Minimal inhibitory concentration(MIC), Cry. neoformans B. 42419 [9] [µg/mL] | Minimal inhibitory concentration(MIC), T. glabrata B. 16205 [11] [µg/mL] | Minimal inhibitory concentration(MIC), A furnigatus B. 19119 ([1]; 4 to 48 hours) [µg/mL] | Minimal inhibitory concentration(MIC), A. niger A. 16404 ([2]; 4 to 48 hours) [µg/mL] | Minimal inhibitory concentration(MIC), Cry. neoformans A. 34144 ([8]; 4 to 48 hours) [µg/mL] | Minimal inhibitory concentration(MIC), Cry. neoformans IFM. 40092 ([10]; 4 to 48 hours) [µg/mL] | Minimal inhibitory concentration(MIC), T. mentagrophytes A. 9129 ([12]; 4 to 48 hours) [µg/mL] | Minimal inhibitory concentration(MIC), T. mentagrophytes B. 32663 ([13]; 4 to 48 hours) [µg/mL] | further results
FC(=C(c1ccc(Oc2ccccc2)cc1)C(F)(F)F)N1CCN(c2ccc(OCC3COC(Cn4ccnc4)(c4ccc(F)cc4F)O3)cc2)CC1 (mixture of isomers) [Ex. 146] | >100 | >100 | 0.78 | 0.78 | 1.56 | 0.39 | >100 | 0.78 | 100 |  |  |  |  |  |  | Minimal inhibitory concentration(MIC), A furnigatus B. 19119 [1]: 100 µg/mL; Minimal inhibitory concentration(MIC), A. niger A. 16404 [2]: 100 µg/mL; Minimal inhibitory concentration(MIC), Cry. neoformans A. 34144 [8]: 1.56 µg/mL; Minimal inhibitory concentration(MIC), Cry. neoformans IFM. 40092 [10]: 0.78 µg/mL; Minimal inhibitory concentration(MIC), T. mentagrophytes A. 9129 [12]: 12.5 µg/mL; Minimal inhibitory concentration(MIC), T. mentagrophytes B. 32663 [13]: 1.56 µg/mL
Cc1cc(C)cc(C(=C(F)OCC2COC(Cn3cncn3)(c3ccc(Cl)cc3Cl)O2)C(F)(F)F)c1 (mixture of isomers) [Ex. 83] | >100 | >100 | >100 | >100 | >100 | >100 | >100 | >100 | >100 | >100 | >100 | >100 | 1.56 | >100 | >100 | 
COc1ccc(C=C(F)Oc2ccc(OCC3COC(Cn4cncn4)(c4ccc(Cl)cc4Cl)O3)cc2)cc1 (mixture of isomers) [Ex. 118] | 25.0 | 12.5 | 1.56 | >100 | >100 | 25.0 | 100 | 1.56 | 50.0 | >100 | >100 | 1.56 | 0.39 | 6.25 | 3.13 | 
CC(C)(C)c1ccc(C(=C(F)Oc2ccc(OCC3COC(Cn4ccnc4)(c4ccc(F)cc4F)O3)cc2)C(F)(F)F)cc1 (mixture of isomers) [Ex. 109] | 100 | 50.0 | 3.13 | >100 | >100 | >100 | >100 | 3.13 | 100 | >100 | >100 | 1.56 | 0.39 | 6.25 | 3.13 | 
FC(OCC1COC(Cn2ccnc2)(c2ccc(Cl)cc2Cl)O1)=C(c1ccc(Cl)cc1)C(F)(F)F (stereo not drawn) [Ex. 31] |  |  |  |  |  |  |  |  |  |  |  |  |  |  |  | Minimal inhibitory concentration (MIC) ([1]; A furnigatus B. 19119, RPMI-1640, 35° C., 4 to 48 hours): 6.25 µg/mL (≈ 11.3 µM); Minimal inhibitory concentration (MIC) ([2]; A. niger A. 16404, RPMI-1640, 35° C., 4 to 48 hours): 6.25 µg/mL (≈ 11.3 µM); Minimal inhibitory concentration (MIC) ([3]; C. albicans A. 10231, RPMI-1640, 35° C.): 12.5 µg/mL (≈ 22.7 µM); Minimal inhibitory concentration (MIC) (Candida albicans C1-2; C. albicans C1-2, RPMI-1640, 35° C.): 12.5 µg/mL (≈ 22.7 µM); Minimal inhibitory concentration (MIC) ([4]; C. albicans IFO. 1385, RPMI-1640, 35° C.): 0.78 µg/mL (≈ 1.41 µM); Minimal inhibitory concentration (MIC) (Candida krusei K. 11655; C. krusei K. 11655, RPMI-1640, 35° C.): 25.0 µg/mL (≈ 45.3 µM); Minimal inhibitory concentration (MIC) ([5]; C. parapsitosis A. 7330, RPMI-1640, 35° C.): 25.0 µg/mL (≈ 45.3 µM); Minimal inhibitory concentration (MIC) ([6]; C. pseudotropicalis K. 11658, RPMI-1640, 35° C.): 12.5 µg/mL (≈ 22.7 µM); Minimal inhibitory concentration (MIC) ([7]; C. tropicalis A. 13803, RPMI-1640, 35° C.): 12.5 µg/mL (≈ 22.7 µM); Minimal inhibitory concentration (MIC) ([8]; Cry. neoformans A. 34144, RPMI-1640, 35° C., 4 to 48 hours): 1.56 µg/mL (≈ 2.83 µM); Minimal inhibitory concentration (MIC) ([9]; Cry. neoformans B. 42419, RPMI-1640, 35° C.): 1.56 µg/mL (≈ 2.83 µM); Minimal inhibitory concentration (MIC) ([10]; Cry. neoformans IFM. 40092, RPMI-1640, 35° C., 4 to 48 hours): 0.78 µg/mL (≈ 1.41 µM); Minimal inhibitory concentration (MIC) ([11]; T. glabrata B. 16205, RPMI-1640, 35° C.): 6.25 µg/mL (≈ 11.3 µM); Minimal inhibitory concentration (MIC) ([12]; T. mentagrophytes A. 9129, RPMI-1640, 35° C., 4 to 48 hours): 3.13 µg/mL (≈ 5.67 µM); Minimal inhibitory concentration (MIC) ([13]; T. mentagrophytes B. 32663, RPMI-1640, 35° C., 4 to 48 hours): 1.56 µg/mL (≈ 2.83 µM)
Cc1ccc(C(=C(F)Oc2ccc(OCC3COC(Cn4ccnc4)(c4ccc(Cl)cc4Cl)O3)cc2)C(F)(F)F)cc1 (mixture of isomers) [Ex. 94] | 25.0 | 50.0 | 3.13 | >100 | >100 | >100 | >100 | 3.13 | 50.0 | >100 | >100 | 3.13 | 0.78 | 25.0 | 12.5 | 
FC(Oc1ccc(OCC2COC(Cn3ccnc3)(c3ccc(Cl)cc3Cl)O2)cc1)=C(c1cccc(C(F)(F)F)c1)C(F)(F)F (mixture of isomers) [Ex. 96] | 100 | 100 | 3.13 | >100 | >100 | >100 | >100 | 3.13 | 100 | 100 | >100 | 3.13 | 0.39 | 12.5 | 6.25 | 
FC(Oc1ccc(OCC2COC(Cn3ccnc3)(c3ccc(Cl)cc3Cl)O2)cc1)=C(c1ccccc1)C(F)(F)F (mixture of isomers) [Ex. 93] | 100 | >100 | 6.25 | >100 | >100 | >100 | >100 | >100 | 100 | >100 | >100 | 12.5 | 1.56 | 25.0 | 25.0 | 
